Assay results as given in patent US20100003217A1, “Compounds and Pharmaceutical Compositions for the Treatment of Viral Infections” (priority 2008, published 2010).
Values joined by “and” are separate entries in the source; they are usually repeats but may differ in a detail not shown here. Identical values can stand only once. One block for each molecule: values may come before it.

Legend:
rat primary hepatocytes = test: Metabolic disposition of [^14C]-Compound 1 and [^14C]-2′-C-methyl guanosine in rat primary hepatocytes (incubation medium, cellular extracts, nucleotide levels); assay type: in vitro ADME, Sprague Dawley rat
Description: (§1) Primary hepatocytes: Freshly isolated cells from animal and human liver were obtained in suspension on ice. Cells were pelleted by centrifugation at 70-75×g (rat) or 95-90×g (monkey and human) and resuspended at 0.8 million cells per mL of platting medium (William's E supplemented with 5% FBS, 0.5% penicillin-streptomycin, 1% L-glutamine, 4 μg/mL insulin and 1 μM dexamethasone). Multi-well collagen I-coated plates (rat tail collagen type I; 12- or 6-well) were then seeded by addition of 1 mL (12-well; 0.8 million cells/well) or 2 mL (6-well; 1.6 million cells/well) of cell suspension. The plates were gently shaken to evenly distribute the cells and placed in an incubator at 37° C. for approximately 4 to 6 hours to allow cells to attach. Once cells were attached, the platting medium was removed and replaced with hepatocyte culture medium (William's E supplemented with penicillin-streptomycin, 1% L-glutamine, 1% insulin-transferrin-selenium and 0.1 μM dexamethasone). Cells were left overnight in an incubator at 37° C. to acclimatize to culture and the medium.
(§2) Hepatocyte incubations with radiolabeled Compound 1 and 2′-C-methyl guanosine, both labeled in the C-8 position of the guanine moiety, were conducted at a final volume of 2.0 mL hepatocyte culture medium/well ([…]). Culture medium from overnight incubation of cells was removed and replaced with fresh medium, pre-warmed to 37° C., containing 1 or 10 μM [^14C]-Compound 1 ([…]) or [^14C]-2′-C-methyl guanosine (127 DPM/μmol) from a stock solution in DMSO (final DMSO concentration was 0.1%) or 50% ethanol (final ethanol concentration was 0.2%). After 1, 4, 8 and 24 hours, 0.5-1.0 mL of incubation medium was removed and stored at −20° C. until analysis (described below). The remaining medium was discarded and cell monolayers were carefully washed two times with ice-cold PBS. Following the last wash, all PBS was carefully removed and 1.0 mL of extraction solution (ice-cold 70% methanol) added. Cells were scrapped off and suspended in the extraction solution, transferred to 2 mL polypropylene microfuge tubes and intracellular contents extracted overnight at −20° C.
(§3) Preliminary identification of putative metabolites was conducted by comparing the retention time of observed metabolites in incubation medium and cellular extracts with retention times obtained with chemically synthesized standards using the chromatography conditions described below. Further identification of 2′-C-methyl guanosine nucleotides (mono-, di- and triphosphate) was carried out by incubating cellular extract samples with alkaline phosphatase (10 units for 60 min at 37° C.) and comparing the HPLC retention times of the resulting nucleosides with that of authentic 2′-C-methyl guanosine.
(§4) Cellular extracts were prepared by centrifugation at 16,000 RCF using an Eppendorf microcentrifuge (Eppendorf, Model 5415D) for 10 min to remove cellular debris. An aliquot of 5-10 μL of the supernatant was added to 5 mL of EcoLite™ (MP, Irvine, Calif.) liquid scintillation cocktail and radioactivity measured by liquid scintillation counting (LSC) using a Beckman Coulter LS6500 multipurpose liquid scintillation counter (Beckman Instruments, Fullerton, Calif.). The remaining sample was then dried using a Labconco refrigerated centrivap concentrator (Labconco, Kansas City, Mo.). Dry extracts were reconstituted in 120 μL of HPLC-grade water and centrifuged at 16,000 RCF using an Eppendorf microcentrifuge for 10 min. Prior to HPLC analysis (described below), radioactivity of the concentrated extracts was measured by LSC using 5 μL aliquots. Extraction recovery was then determined by comparing total radioactivity in extracts before and after drying. The remaining extract was then analyzed by HPLC with online radioactivity detection using a Flow Scintillation Analyzer Radiomatic™ 515TR. Radioactivity in the separated components was quantified by integrating the peaks using Flo-One™ Software (Perkin Elmer Life Sciences). […]

[1] = test system: monkey primary hepatocytes; test: Metabolic disposition of [^14C]-Compound 1 and [^14C]-2′-C-methyl guanosine in monkey primary hepatocytes (incubation medium, cellular extracts, nucleotide levels); assay type: in vitro ADME, Cynomolgus monkey; details: for Major metabolites observed in cellular extracts (% of total radioactivity): 10 μM [^14C]-2′-C-methyl guanosine
Description: as §1, §2, §3, §4

[2] = rat hepatocytes (Rs448, Rs458), 10 μM [^14C]-Compound 1, 8 h
[3] = rat hepatocytes (Rs448, Rs458), 10 μM [^14C]-Compound 1, 24 h
[4] = rat hepatocytes (Rs458), 1 μM [^14C]-Compound 1, 0 h
[5] = rat hepatocytes (Rs458), 1 μM [^14C]-Compound 1, 1 h
[6] = rat hepatocytes (Rs458), 1 μM [^14C]-Compound 1, 8 h
[7] = rat hepatocytes (Rs458), 1 μM [^14C]-Compound 1, 24 h
[8] = rat hepatocytes (lots Rs448, Rs458), 10 μM [^14C]-Compound 1, 0 h
[9] = rat hepatocytes (lots Rs448, Rs458), 10 μM [^14C]-Compound 1, 1 h
[10] = rat hepatocytes (lots Rs448, Rs458), 10 μM [^14C]-Compound 1, 4 h
[11] = rat hepatocytes (lots Rs448, Rs458), 10 μM [^14C]-Compound 1, 8 h
[12] = rat hepatocytes (lots Rs448, Rs458), 10 μM [^14C]-Compound 1, 24 h
[13] = monkey hepatocytes (Cy230, Cy234), 10 μM [^14C]-Compound 1, 1 h
[14] = monkey hepatocytes (Cy230, Cy234), 10 μM [^14C]-Compound 1, 8 h
[15] = monkey hepatocytes (Cy230, Cy234), 10 μM [^14C]-Compound 1, 24 h
[16] = monkey hepatocytes (Cy234), 10 μM [^14C]-Compound 1, 4 h
[17] = monkey hepatocytes (lot Cy234), 10 μM [^14C]-Compound 1, 4 h
[18] = monkey hepatocytes (lots Cy230, Cy234), 10 μM [^14C]-Compound 1, 0 h
[19] = monkey hepatocytes (lots Cy230, Cy234), 10 μM [^14C]-Compound 1, 8 h
[20] = monkey hepatocytes (lots Cy230, Cy234), 10 μM [^14C]-Compound 1, 24 h

- metabolites observed in cellular extracts (% of total radioactivity) (rat primary hepatocytes; rat hepatocytes (Rs448, Rs458), 10 μM [^14C]-Compound 1, 1 h): 1.84% and 1.75%
- metabolites observed in cellular extracts (% of total radioactivity) (rat primary hepatocytes; rat hepatocytes (Rs448, Rs458), 10 μM [^14C]-Compound 1, 4 h): 5.04% and 3.78%
- metabolites observed in cellular extracts (% of total radioactivity) (rat primary hepatocytes; [2]): 8.77% and 4.95%
- metabolites observed in cellular extracts (% of total radioactivity) (rat primary hepatocytes; [3]): 14.7% and 16.9%
- metabolites observed in medium (% of total radioactivity) (rat primary hepatocytes; [4]): BLD
- metabolites observed in cellular extracts (% of total radioactivity) (rat primary hepatocytes; [5]): 1.01%
- metabolites observed in medium (% of total radioactivity) (rat primary hepatocytes; [5]): BLD
- metabolites observed in cellular extracts (% of total radioactivity) (rat primary hepatocytes; [6]): 5.58%
- metabolites observed in medium (% of total radioactivity) (rat primary hepatocytes; [6]): 29.4%
- metabolites observed in cellular extracts (% of total radioactivity) (rat primary hepatocytes; [7]): 13.1%
- metabolites observed in medium (% of total radioactivity) (rat primary hepatocytes; [7]): 58% and 58.3%
- metabolites observed in medium (% of total radioactivity) (rat primary hepatocytes; [8]): BLD^b and BLD
- metabolites observed in medium (% of total radioactivity) (rat primary hepatocytes; [9]): 0.8% and 0.5%
- metabolites observed in medium (% of total radioactivity) (rat primary hepatocytes; [10]): 17.5% and 10.1% and 17.0% and 10.0%
- metabolites observed in medium (% of total radioactivity) (rat primary hepatocytes; [11]): 41.5% and 23.4% and 41.0% and 23.0%
- Major metabolites observed in cellular extracts (% of total radioactivity) (rat primary hepatocytes; rat hepatocytes Rs448, 10 μM [^14C]-2′-C-methyl guanosine, 1 h): 93.6 % of total radioactivity
- Major metabolites observed in cellular extracts (% of total radioactivity) (rat primary hepatocytes; rat hepatocytes Rs448, 10 μM [^14C]-2′-C-methyl guanosine, 4 h): 78.6 % of total radioactivity
- Major metabolites observed in cellular extracts (% of total radioactivity) (rat primary hepatocytes; rat hepatocytes Rs448, 10 μM [^14C]-2′-C-methyl guanosine, 8 h): 69.2 % of total radioactivity
- Major metabolites observed in cellular extracts (% of total radioactivity) (rat primary hepatocytes; rat hepatocytes Rs448, 10 μM [^14C]-2′-C-methyl guanosine, 24 h): 51.5 % of total radioactivity
- Major metabolites observed in cellular extracts (% of total radioactivity) (rat primary hepatocytes; rat hepatocytes Rs458, 1 μM [^14C]-2′-C-methyl guanosine, 1 h): 93.4 % of total radioactivity
- Major metabolites observed in cellular extracts (% of total radioactivity) (rat primary hepatocytes; rat hepatocytes Rs458, 1 μM [^14C]-2′-C-methyl guanosine, 8 h): 68.7 % of total radioactivity
- Major metabolites observed in cellular extracts (% of total radioactivity) (rat primary hepatocytes; rat hepatocytes Rs458, 1 μM [^14C]-2′-C-methyl guanosine, 24 h): 49.2 % of total radioactivity
- Major metabolites observed in cellular extracts (% of total radioactivity) (rat primary hepatocytes; rat hepatocytes Rs458, 10 μM [^14C]-2′-C-methyl guanosine, 1 h): 94.5 % of total radioactivity
- Major metabolites observed in cellular extracts (% of total radioactivity) (rat primary hepatocytes; rat hepatocytes Rs458, 10 μM [^14C]-2′-C-methyl guanosine, 4 h): 79.8 % of total radioactivity
- Major metabolites observed in cellular extracts (% of total radioactivity) (rat primary hepatocytes; rat hepatocytes Rs458, 10 μM [^14C]-2′-C-methyl guanosine, 8 h): 67.2 % of total radioactivity
- Major metabolites observed in cellular extracts (% of total radioactivity) (rat primary hepatocytes; rat hepatocytes Rs458, 10 μM [^14C]-2′-C-methyl guanosine, 24 h): 47.1 % of total radioactivity
- metabolites observed in cellular extracts (% of total radioactivity) [1, 13]: 1.68% and 3.04%
- metabolites observed in cellular extracts (% of total radioactivity) [1, 14]: 0.95% and 2.06%
- metabolites observed in cellular extracts (% of total radioactivity) [1, 15]: 2.31% and 1.25%
- metabolites observed in cellular extracts (% of total radioactivity) [1, 16]: 1.35%
- metabolites observed in medium (% of total radioactivity) [1, 17]: 6.8%
- metabolites observed in medium (% of total radioactivity) [1, 18]: BLD^c and BLD
- metabolites observed in medium (% of total radioactivity) [1, 19]: 10.4% and 14.8%
- metabolites observed in medium (% of total radioactivity) [1, 20]: 48.8% and 35.6%
- Major metabolites observed in cellular extracts (% of total radioactivity) ([1]; monkey hepatocytes Cy230, 1 h): 96.4 % of total radioactivity
- Major metabolites observed in cellular extracts (% of total radioactivity) ([1]; monkey hepatocytes Cy230, 8 h): 77.3 % of total radioactivity
- Major metabolites observed in cellular extracts (% of total radioactivity) ([1]; monkey hepatocytes Cy230, 24 h): 65.0 % of total radioactivity
- Major metabolites observed in cellular extracts (% of total radioactivity) ([1]; monkey hepatocytes Cy234, 1 h): 86.9 % of total radioactivity
- Major metabolites observed in cellular extracts (% of total radioactivity) ([1]; monkey hepatocytes Cy234, 4 h): 57.9 % of total radioactivity
- Major metabolites observed in cellular extracts (% of total radioactivity) ([1]; monkey hepatocytes Cy234, 8 h): 45.8 % of total radioactivity
- Major metabolites observed in cellular extracts (% of total radioactivity) ([1]; monkey hepatocytes Cy234, 24 h): 29.0 % of total radioactivity
SMILES: C[C@@]1(O)[C@H](O)[C@@H](CO)O[C@H]1n1cnc2c(=O)[nH]c(N)nc21 [2′-C-methyl guanosine, 9-(2-C-methyl-β-D-ribofuranosyl)guanine, reference compound]
- metabolites observed in medium (% of total radioactivity) (rat primary hepatocytes; [12]): 67% and 68.5% and 65.3% and 69.0% and 65.0%

- metabolites observed in cellular extracts (% of total radioactivity) (rat primary hepatocytes; rat hepatocytes (Rs448, Rs458), 10 μM [^14C]-Compound 1, 1 h, listed as Compd 2): 1.92% and 3.48%
- metabolites observed in cellular extracts (% of total radioactivity) (rat primary hepatocytes; [2]): BLD
- metabolites observed in cellular extracts (% of total radioactivity) (rat primary hepatocytes; [3]): BLD
- metabolites observed in medium (% of total radioactivity) (rat primary hepatocytes; [4]): 1.05%
- metabolites observed in cellular extracts (% of total radioactivity) (rat primary hepatocytes; [5]): 5.83%
- metabolites observed in medium (% of total radioactivity) (rat primary hepatocytes; [5]): 3.02%
- metabolites observed in cellular extracts (% of total radioactivity) (rat primary hepatocytes; [6]): BLD
- metabolites observed in medium (% of total radioactivity) (rat primary hepatocytes; [6]): 9.52%
- metabolites observed in cellular extracts (% of total radioactivity) (rat primary hepatocytes; [7]): BLD
- metabolites observed in medium (% of total radioactivity) (rat primary hepatocytes; [7]): 7% and 7.43%
- metabolites observed in medium (% of total radioactivity) (rat primary hepatocytes; [8]): 2.2% and 1.5%
- metabolites observed in medium (% of total radioactivity) (rat primary hepatocytes; [9]): 1.9% and 1.5%
- metabolites observed in medium (% of total radioactivity) (rat primary hepatocytes; [10]): 5.3% and 5.1%
- metabolites observed in medium (% of total radioactivity) (rat primary hepatocytes; [11]): 5.7% and 6.8%
- metabolites observed in medium (% of total radioactivity) (rat primary hepatocytes; [12]): 3.7% and 4.6%
- metabolites observed in cellular extracts (% of total radioactivity) [1, 13]: 3.20% and 7.96%
- metabolites observed in cellular extracts (% of total radioactivity) [1, 14]: BLD^c and BLD
- metabolites observed in cellular extracts (% of total radioactivity) [1, 15]: BLD
- metabolites observed in cellular extracts (% of total radioactivity) [1, 16]: 1.25%
- metabolites observed in medium (% of total radioactivity) [1, 17]: 1.1%
- metabolites observed in medium (% of total radioactivity) [1, 18]: 1.0% and 6.2%
- metabolites observed in medium (% of total radioactivity) ([1]; monkey hepatocytes (lots Cy230, Cy234), 10 μM [^14C]-Compound 1, 1 h): 1.9% and 0.6%
- metabolites observed in medium (% of total radioactivity) [1, 19]: 8.5% and 1.8%
- metabolites observed in medium (% of total radioactivity) [1, 20]: 7.0% and 8.2%
SMILES: C[C@@]1(O)[C@H](O)[C@@H](COP(=O)(O)NCc2ccccc2)O[C@H]1n1cnc2c(=O)[nH]c(N)nc21 [Compound 2, [(2R)-2-methyl-β-D-ribofuranosyl]guanine-N-benzylaminyl-5′-monophosphate]
